Legend:
[1] = system: corn; experiment: Test B pre/postemergence corn; type: in vivo, Zea mays
How it was run: (§1)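 Response is a visual 0-to-10 score relative to untreated plants, where 0 means no effect and 10 means complete control, taken twelve to sixteen days after application. Treatments went onto soil at planting and onto foliage of 1- to 4-leaf plants, using a surfactant-containing non-phytotoxic solvent.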

[2] = system: surinam grass; experiment: Test B pre/postemergence surinam grass; type: in vivo, Brachiaria decumbens
How it was run: as §1

[3] = system: velvetleaf; experiment: Test B pre/postemergence velvetleaf; type: in vivo, Abutilon theophrasti
How it was run: as §1

[4] = system: soybean; experiment: Test B pre/postemergence soybean; type: in vivo, Glycine max
How it was run: as §1

[5] = system: wheat; experiment: Test B pre/postemergence wheat; type: in vivo, Triticum aestivum
How it was run: as §1

[6] = system: rice; experiment: Test B flood test rice; type: in vivo, Oryza sativa
How it was run: (§2)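 Read-out is a visual response score from 0 (no effect) to 10 (complete control), assigned by comparison with untreated controls. Treatment was applied at the 2-leaf stage, and plants stayed in the greenhouse for twelve to sixteen days before scoring.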

[7] = system: crabgrass; experiment: Test B pre/postemergence crabgrass; type: in vivo, Digitaria sanguinalis
How it was run: as §1

[8] = system: blackgrass; experiment: Test B pre/postemergence blackgrass; type: in vivo, Alopecurus myosuroides
How it was run: as §1

[9] = system: sugar beet; experiment: Test B pre/postemergence sugar beet; type: in vivo, Beta vulgaris
How it was run: as §1

[10] = system: duck salad; experiment: Test B flood test duck salad; type: in vivo, Heteranthera limosa
How it was run: as §2

[11] = system: wild oat; experiment: Test B pre/postemergence wild oat; type: in vivo, Avena fatua
How it was run: as §1

[12] = system: bedstraw; experiment: Test B pre/postemergence bedstraw; type: in vivo, Galium aparine
How it was run: as §1

[13] = system: bamyardgrass; experiment: Test B flood test barnyardgrass; type: in vivo, Echinochloa crus-galli
How it was run: as §2

[14] = system: cocklebur; experiment: Test B pre/postemergence cocklebur; type: in vivo, Xanthium strumarium
How it was run: as §1

[15] = system: purple nutsedge; experiment: Test B pre/postemergence purple nutsedge; type: in vivo, Cyperus rotundus
How it was run: as §1

[16] = system: smallflower flatsedge; experiment: Test B flood test smallflower flatsedge; type: in vivo, Cyperus difformis
How it was run: as §2

[17] = Preemergence, Rate 62 g/ha, scale of 0 to 10 where 0 is no effect and 10 is complete control
[18] = Preemergence, Rate 250 g/ha, scale of 0 to 10 where 0 is no effect and 10 is complete control
[19] = Preemergence, Rate 500 g/ha, scale of 0 to 10 where 0 is no effect and 10 is complete control
[20] = Rate 62 g/ha, Postemergence, scale 0 to 10 (0 no effect, 10 complete control)
[21] = Rate 125 g/ha, Postemergence, scale of 0 to 10 where 0 is no effect and 10 is complete control
[22] = Rate 250 g/ha, Postemergence, scale of 0 to 10 where 0 is no effect and 10 is complete control
[23] = Rate 500 g/ha, Postemergence, scale 0 to 10, 0 no effect, 10 complete control
[24] = Rate 62 g/ha, headed Pre-emergence (flood test species), scale 0 to 10 (0 no effect, 10 complete control)
[25] = Rate 125 g/ha, Pre-emergence, flood test species, scale 0 to 10 where 0 is no effect and 10 is complete control
[26] = Rate 250 g/ha, Pre-emergence, flood-test species, scale 0 to 10, 0 is no effect, 10 is complete control
[27] = Rate 500 g/ha, Pre-emergence, flood test species, scale 0 to 10 (0 no effect, 10 complete control)

For `Cc1cccc(C(C)(C)C)c1-n1c(=O)on(C(=O)N(c2ccccc2)C(C)C)c1=O` [Compound 303], the “Corn plant response rating” value [1, 17] was 0, the “Corn plant response rating (0 to 10 scale)” value ([1]; Preemergence, Rate 125 g/ha) was 0 and the “Corn plant response rating” value [1, 18] was 0. For the same compound, the “Corn plant response rating” value [1, 19] was 0, the “Corn plant response rating” value [1, 20] was 0 and the “Corn plant response rating” value [1, 21] was 0. The “Plant response rating, Corn” value [1, 22] was 0, the “Corn plant response rating” value [1, 23] was 0 and the “B. signalgrass plant response rating” value [2, 17] was 0. The “B. signalgrass plant response rating (0 to 10 scale, 0 is no effect, 10 is complete control)” value ([2]; Preemergence, Rate 125 g/ha) was 0, the “B. signalgrass plant response rating” value [2, 18] was 0 and the “B. signalgrass plant response rating” value [2, 19] was 0. The “B. signalgrass plant response rating” value [2, 20] was 0, the “B. signalgrass plant response rating” value [2, 21] was 0 and the “Plant response rating, B. signalgrass” value [2, 22] was 0. The “B. signalgrass plant response rating” value [2, 23] was 0, the “Velvetleaf plant response rating” value [3, 17] was 0 and the “Velvetleaf plant response rating (0 to 10 scale)” value ([3]; Preemergence, Rate 125 g/ha) was 0. The “Velvetleaf plant response rating” value [3, 18] was 0, the “Velvetleaf plant response rating” value [3, 19] was 0 and the “Velvetleaf plant response rating” value [3, 20] was 0. The “Velvetleaf plant response rating” value [3, 21] was 0, the “Plant response rating, Velvetleaf” value [3, 22] was 0 and the “Soybean plant response rating” value [4, 17] was 0. For the same compound, the “Soybean plant response rating (0 to 10 scale)” value ([4]; Preemergence, Rate 125 g/ha) was 0, the “Soybean plant response rating” value [4, 18] was 0 and the “Soybean plant response rating” value [4, 19] was 0. For the same compound, the “Soybean plant response rating” value [4, 20] was 2, the “Soybean plant response rating” value [4, 21] was 2 and the “Plant response rating, Soybean” value [4, 22] was 3. The “Wheat plant response rating” value [5, 17] was 0, the “Wheat plant response rating (0 to 10 scale)” value ([5]; Preemergence, Rate 125 g/ha) was 0 and the “Wheat plant response rating” value [5, 18] was 0. The “Wheat plant response rating” value [5, 19] was 0, the “Wheat plant response rating” value [5, 20] was 0 and the “Wheat plant response rating” value [5, 21] was 0. The “Plant response rating, Wheat” value [5, 22] was 0, the “Rice plant response rating” value [6, 24] was 0 and the “Rice plant response rating” value [6, 25] was 0. The “Rice plant response rating” value [6, 26] was 0, the “Rice plant response rating” value [6, 27] was 0 and the “Crabgrass plant response rating” value [7, 17] was 0. For the same compound, the “Crabgrass plant response rating (0 to 10 scale)” value ([7]; Preemergence, Rate 125 g/ha) was 0, the “Crabgrass plant response rating” value [7, 18] was 0 and the “Crabgrass plant response rating” value [7, 20] was 0. For the same compound, the “Crabgrass plant response rating” value [7, 21] was 0, the “Plant response rating, Crabgrass” value [7, 22] was 0 and the “Blackgrass plant response rating” value [8, 17] was 0. For the same compound, the “Blackgrass plant response rating (0 to 10 scale)” value ([8]; Preemergence, Rate 125 g/ha) was 0, the “Blackgrass plant response rating” value [8, 18] was 0 and the “Blackgrass plant response rating” value [8, 19] was 0. For the same compound, the “Blackgrass plant response rating” value [8, 20] was 0, the “Blackgrass plant response rating” value [8, 21] was 0 and the “Plant response rating, Blackgrass” value [8, 22] was 0. For the same compound, the “Blackgrass plant response rating” value [8, 23] was 0, the “Sugarbeets plant response rating” value [9, 17] was 0 and the “Sugarbeets plant response rating (0 to 10 scale)” value ([9]; Preemergence, Rate 125 g/ha) was 0. The “Sugarbeets plant response rating” value [9, 18] was 0, the “Sugarbeets plant response rating” value [9, 19] was 0 and the “Sugarbeets plant response rating” value [9, 20] was 0. The “Sugarbeets plant response rating” value [9, 21] was 0, the “Plant response rating, Sugarbeets” value [9, 22] was 0 and the “Ducksalad plant response rating” value [10, 24] was 0. The “Ducksalad plant response rating” value [10, 25] was 0, the “Ducksalad plant response rating” value [10, 26] was 0 and the “Ducksalad plant response rating” value [10, 27] was 0. The “Wild oats plant response rating” value [11, 17] was 0, the “Wild oats plant response rating (0 to 10 scale)” value ([11]; Preemergence, Rate 125 g/ha) was 0 and the “Wild oats plant response rating” value [11, 18] was 0. The “Wild oats plant response rating” value [11, 19] was 0, the “Wild oats plant response rating” value [11, 20] was 0 and the “Wild oats plant response rating” value [11, 21] was 0. For the same compound, the “Plant response rating, Wild oats” value [11, 22] was 0, the “Bedstraw plant response rating” value [12, 17] was 0 and the “Bedstraw plant response rating (0 to 10 scale)” value ([12]; Preemergence, Rate 125 g/ha) was 0. For the same compound, the “Bedstraw plant response rating” value [12, 18] was 0, the “Bedstraw plant response rating” value [12, 21] was 0 and the “Bedstraw plant response rating” value [12, 23] was 0. For the same compound, the “Barnyardgrass plant response rating” value [13, 24] was 0, the “Barnyardgrass plant response rating” value [13, 25] was 0 and the “Barnyardgrass plant response rating” value [13, 26] was 0. The “Barnyardgrass plant response rating” value [13, 27] was 0, the “Cocklebur plant response rating” value [14, 17] was 0 and the “Cocklebur plant response rating (0 to 10 scale)” value ([14]; Preemergence, Rate 125 g/ha) was 0. The “Cocklebur plant response rating” value [14, 18] was 0, the “Cocklebur plant response rating” value [14, 19] was 0 and the “Cocklebur plant response rating” value [14, 20] was 0. The “Cocklebur plant response rating” value [14, 21] was 0, the “Plant response rating, Cocklebur” value [14, 22] was 0 and the “Cocklebur plant response rating” value [14, 23] was 0. For the same compound, the “Nutsedge plant response rating” value [15, 17] was 0, the “Nutsedge plant response rating” value [15, 18] was 0 and the “Nutsedge plant response rating” value [15, 19] was 0. For the same compound, the “Nutsedge plant response rating” value [15, 20] was 0, the “Nutsedge plant response rating” value [15, 21] was 0 and the “Plant response rating, Nutsedge” value [15, 22] was 0. The “S. Flatsedge plant response rating” value [16, 24] was 0, the “S. Flatsedge plant response rating” value [16, 25] was 0 and the “S. Flatsedge plant response rating” value [16, 26] was 0. The “S. Flatsedge plant response rating” value [16, 27] was 0.

Reference: US6737383B1, “Herbicidal oxadiazolidines” (priority 1999, dated 2004)
